{"source": "ChEMBL document CHEMBL1126366", "about": "“Design & synthesis of a novel EPSP synthase inhibitor based on its ternary complex with shikimate-3-phosphate and glyphosate” (Bioorg Med Chem Lett, 1992)", "key": {"[1]": {"target": "T1, 3-phosphoshikimate 1-carboxyvinyltransferase (Escherichia coli K-12, UniProt P0A6D3)", "T1 sequence (P0A6D3 whole entry)": "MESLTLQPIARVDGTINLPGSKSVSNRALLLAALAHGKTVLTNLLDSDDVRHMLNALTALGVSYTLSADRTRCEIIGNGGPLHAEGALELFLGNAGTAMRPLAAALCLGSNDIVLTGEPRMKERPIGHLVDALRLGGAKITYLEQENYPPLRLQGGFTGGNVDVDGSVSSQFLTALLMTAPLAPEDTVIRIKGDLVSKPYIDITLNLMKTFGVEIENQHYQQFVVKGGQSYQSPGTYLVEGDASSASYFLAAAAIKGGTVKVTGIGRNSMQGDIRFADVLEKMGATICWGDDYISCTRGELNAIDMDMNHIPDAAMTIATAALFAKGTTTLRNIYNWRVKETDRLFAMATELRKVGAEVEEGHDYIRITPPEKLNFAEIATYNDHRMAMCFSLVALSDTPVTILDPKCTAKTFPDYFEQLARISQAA", "experiment": "Inhibition of the EPSP synthase by the compound expressed as weak apparent value"}, "[2]": {"target": "T1, 3-phosphoshikimate 1-carboxyvinyltransferase", "experiment": "Dissociation constant of the at EPSP synthase was determined"}, "[3]": {"target": "T1, 3-phosphoshikimate 1-carboxyvinyltransferase", "experiment": "Inhibition of the EPSP synthase PEP-Pi site by the compound expressed as apparent value"}, "[4]": {"target": "T1, 3-phosphoshikimate 1-carboxyvinyltransferase", "experiment": "Potency against EPSP synthase"}, "[5]": {"target": "T1, 3-phosphoshikimate 1-carboxyvinyltransferase", "experiment": "Inhibition of EPSP synthase PEP-Pi site by the compound was expressed as apparent value"}, "[6]": {"target": "T1, 3-phosphoshikimate 1-carboxyvinyltransferase", "experiment": "Dissociation constant against EPSP synthase"}}}
{"molecule": "O=C(O)CN(CP(=O)(O)O)[C@@H]1CC(C(=O)O)=C[C@@H](OP(=O)(O)O)[C@H]1O", "values": [{"measurement": "Ki", "setting": "[1]", "result": 7.4, "unit": "µM"}, {"measurement": "Kd", "setting": "[2]", "result": 8, "unit": "µM"}, {"measurement": "Ki", "setting": "[3]", "result": 13, "unit": "µM"}]}
{"molecule": "C[C@@](O[C@@H]1CC(C(=O)O)=C[C@@H](OP(=O)(O)O)[C@H]1O)(C(=O)O)P(=O)(O)O", "values": [{"measurement": "Ki", "setting": "[4]", "result": 0.015, "unit": "µM"}, {"measurement": "Ki", "setting": "[5]", "result": 0.00011, "unit": "µM"}, {"measurement": "Kd", "setting": "[6]", "result": 0.015, "unit": "µM"}]}
{"molecule": "N[C@@H]1CC(C(=O)O)=C[C@@H](OP(=O)(O)O)[C@H]1O", "values": [{"measurement": "Ki", "setting": "[4]", "result": 85, "unit": "µM"}]}
